Results: ChEMBL document CHEMBL4616601, “Meeting organometallic chemistry with drug discovery: CH activation enabled discovery of a new ring system of 12H-Indazolo[2,1-a]cinnolin-12-ones with anti-proliferation activity” (Bioorg Med Chem Lett, 2020)
One block for each compound: values may come before it. Activity calls are given as the source filed them. No rule for the calls is given here.

Assays:
PC-3 [1] = test: Antiproliferative activity against human PC3 cells assessed as inhibition of cell viability at 0.5 to 5 uM after 72 hrs by CCK8 assay; type: functional, cell-based
PC-3 [2] = test: Antiproliferative activity against human PC3 cells assessed as reduction in cell viability after 72 hrs by CCK8 assay; type: functional, cell-based; settings: PC-3, 72 h
PANC-1 = test: Antiproliferative activity against human PANC1 cells assessed as reduction in cell viability after 72 hrs; type: functional, cell-based; settings: PANC-1, 72 h
PC-3 [3] = test: Antiproliferative activity against human PC3 cells at 0.5 uM assessed as inhibition of cell viability after 72 hrs by CCK-8 assay relative to control; type: functional; settings: PC-3, 72 h
SW1990 = test: Antiproliferative activity against human SW1990 cells assessed as reduction in cell viability; type: functional, cell-based
SK-BR-3 = test: Antiproliferative activity against human SKBR3 cells assessed as reduction in cell viability; type: functional, cell-based
HCT-116 = test: Antiproliferative activity against human HCT116 cells assessed as reduction in cell viability; type: functional, cell-based
NCI-H1299 = test: Antiproliferative activity against human NCI-H1299 cells assessed as reduction in cell viability; type: functional, cell-based
HepG2 = test: Antiproliferative activity against human HepG2 cells assessed as reduction in cell viability; type: functional, cell-based
HeLa = test: Antiproliferative activity against human HeLa cells assessed as reduction in cell viability; type: functional, cell-based
DU-145 = test: Antiproliferative activity against human DU145 cells assessed as reduction in cell viability; type: functional, cell-based
PC-3 [4] = test: Inhibition of colony formation in human PC3 cells at 50 nM after 1 week relative to control; type: functional; settings: PC-3, 168 h
PC-3 [5] = test: Inhibition of colony formation in human PC3 cells at 250 nM after 1 week relative to control; type: functional; settings: PC-3, 168 h
PC-3 [6] = test: Inhibition of colony formation in human PC3 cells after 1 week; type: functional, cell-based
PC-3 [7] = test: Induction of cell cycle arrest in human PC3 cells assessed as accumulation at G2/M phase after 24 hrs by flow cytometry; type: functional, cell-based
PC-3 [8] = test: Induction of cell cycle arrest in human PC3 cells assessed as accumulation at G1 phase at 50 nM after 24 hrs by flow cytometry (reference value: 56.46%); type: functional
PC-3 [9] = test: Induction of cell cycle arrest in human PC3 cells assessed as accumulation at S phase at 50 nM after 24 hrs by flow cytometry (reference value: 24.73%); type: functional
PC-3 [10] = test: Induction of cell cycle arrest in human PC3 cells assessed as accumulation at G2/M phase at 50 nM after 24 hrs by flow cytometry (reference value: 18.81%); type: functional
PC-3 [11] = test: Induction of cell cycle arrest in human PC3 cells assessed as accumulation at G1 phase at 100 nM after 24 hrs by flow cytometry (reference value: 56.46%); type: functional
PC-3 [12] = test: Induction of cell cycle arrest in human PC3 cells assessed as accumulation at S phase at 100 nM after 24 hrs by flow cytometry (reference value: 24.73%); type: functional
PC-3 [13] = test: Induction of cell cycle arrest in human PC3 cells assessed as accumulation at G2/M phase at 100 nM after 24 hrs by flow cytometry (reference value: 18.81%); type: functional
PC-3 [14] = test: Induction of cell cycle arrest in human PC3 cells assessed as accumulation at G1 phase at 250 nM after 24 hrs by flow cytometry (reference value: 56.46%); type: functional
PC-3 [15] = test: Induction of cell cycle arrest in human PC3 cells assessed as accumulation at S phase at 250 nM after 24 hrs by flow cytometry (reference value: 24.73%); type: functional
PC-3 [16] = test: Induction of cell cycle arrest in human PC3 cells assessed as accumulation at G2/M phase at 250 nM after 24 hrs by flow cytometry (reference value: 18.81%); type: functional
PC-3 [17] = test: Induction of cell cycle arrest at G2/M phase in human PC3 cells assessed as increase in cyclin B1 expression after 24 hrs by Western blot analysis; type: functional, cell-based
PC-3 [18] = test: Induction of cell cycle arrest at G2/M phase in human PC3 cells assessed as increase in CDC2 expression after 24 hrs by Western blot analysis; type: functional, cell-based
PC-3 [19] = test: Induction of apoptosis in human PC3 cells assessed as viable cells at 50 nM after 24 hrs by Annexin V-FITC/propidium iodide staining-based flow cytometry (reference value: 75.33%); type: functional; settings: PC-3, 24 h, read-out: Activity
PC-3 [20] = test: Induction of apoptosis in human PC3 cells assessed as early apoptotic cells at 50 nM after 24 hrs by Annexin V-FITC/propidium iodide staining-based flow cytometry (reference value: 11.88%); type: functional
PC-3 [21] = test: Induction of apoptosis in human PC3 cells assessed as late apoptotic cells at 50 nM after 24 hrs by Annexin V-FITC/propidium iodide staining-based flow cytometry (reference value: 12.21%); type: functional
PC-3 [22] = test: Induction of apoptosis in human PC3 cells assessed as necrotic cells at 50 nM after 24 hrs by Annexin V-FITC/propidium iodide staining-based flow cytometry (reference value: 0.58%); type: functional
PC-3 [23] = test: Induction of apoptosis in human PC3 cells assessed as viable cells at 100 nM after 24 hrs by Annexin V-FITC/propidium iodide staining-based flow cytometry (reference value: 75.33%); type: functional; settings: PC-3, 24 h, read-out: Activity
PC-3 [24] = test: Induction of apoptosis in human PC3 cells assessed as early apoptotic cells at 100 nM after 24 hrs by Annexin V-FITC/propidium iodide staining-based flow cytometry (reference value: 11.88%); type: functional
PC-3 [25] = test: Induction of apoptosis in human PC3 cells assessed as late apoptotic cells at 100 nM after 24 hrs by Annexin V-FITC/propidium iodide staining-based flow cytometry (reference value: 12.21%); type: functional
PC-3 [26] = test: Induction of apoptosis in human PC3 cells assessed as necrotic cells at 100 nM after 24 hrs by Annexin V-FITC/propidium iodide staining-based flow cytometry (reference value: 0.58%); type: functional
PC-3 [27] = test: Induction of apoptosis in human PC3 cells assessed as viable cells at 250 nM after 24 hrs by Annexin V-FITC/propidium iodide staining-based flow cytometry (reference value: 75.33%); type: functional; settings: PC-3, 24 h, read-out: Activity
PC-3 [28] = test: Induction of apoptosis in human PC3 cells assessed as early apoptotic cells at 250 nM after 24 hrs by Annexin V-FITC/propidium iodide staining-based flow cytometry (reference value: 11.88%); type: functional
PC-3 [29] = test: Induction of apoptosis in human PC3 cells assessed as late apoptotic cells at 250 nM after 24 hrs by Annexin V-FITC/propidium iodide staining-based flow cytometry (reference value: 12.21%); type: functional
PC-3 [30] = test: Induction of apoptosis in human PC3 cells assessed as necrotic cells at 250 nM after 24 hrs by Annexin V-FITC/propidium iodide staining-based flow cytometry (reference value: 0.58%); type: functional
PC-3 [31] = test: Induction of apoptosis in human PC3 cells after 24 hrs by Annexin V-FITC/propidium iodide staining-based flow cytometry; type: functional, cell-based
PC-3 [32] = test: Induction of apoptosis in human PC3 cells assessed as reduction in caspase-3 expression after 24 hrs by Western blot analysis; type: functional, cell-based
PC-3 [33] = test: Induction of apoptosis in human PC3 cells assessed as reduction in PARP expression level after 24 hrs by Western blot analysis; type: functional, cell-based
PC-3 [34] = test: Induction of apoptosis in human PC3 cells assessed as increase in PARP cleavage after 24 hrs by Western blot analysis; type: functional, cell-based

SMILES: COC(=O)c1c(C)n2c3ccccc3c(=O)n2c2c(F)cccc12
- Activity (PC-3 [1]): Active
- IC50 (PC-3 [2]): 334 nM
- IC50 (PANC-1): 528 nM

SMILES: CCOC(=O)c1c(-c2ccc(I)cc2)n2c3ccccc3c(=O)n2c2ccccc12
- Activity (PC-3 [1]): Active
- IC50 (PC-3 [2]): 3980 nM
- IC50 (PANC-1): 6820 nM

SMILES: CC(C)[C@]12O[C@H]1[C@@H]1O[C@@]13[C@@]1(C)CCC4=C(COC4=O)[C@@H]1C[C@@H]1O[C@@]13C2=O [TRIPTONIDE]
- IC50 (PC-3 [2]): 25 nM
- IC50 (PANC-1): 47 nM

SMILES: O=C1CCc2c1c1cccc(F)c1n1c(=O)c3ccccc3n21
- Activity (PC-3 [1]): Active

SMILES: COC(=O)c1c(C2CC2)n2c3ccccc3c(=O)n2c2ccccc12
- Activity (PC-3 [1]): inactive

SMILES: O=C1CCCc2c1c1cc(F)ccc1n1c(=O)c3ccccc3n21
- Activity (PC-3 [1]): Active

SMILES: CCOC(=O)c1c(-c2ccccc2)n2c3ccccc3c(=O)n2c2ccc(C)cc12
- Activity (PC-3 [1]): Active

SMILES: COC(=O)c1c(C)n2c3ccccc3c(=O)n2c2cc(OC)c(OC)c(OC)c12
- Activity (PC-3 [1]): Active

Second part, led by results:

- IC50 (PC-3 [2]): 2020 nM
- IC50 (PANC-1): 4230 nM
SMILES: CCOC(=O)c1c(-c2ccccc2)n2c3ccccc3c(=O)n2c2ccc(OC)cc12
- Activity (PC-3 [1]): Active

- IC50 (PC-3 [2]): 7490 nM
- IC50 (PANC-1): 13800 nM
SMILES: CCOC(=O)c1c(-c2ccccc2)n2c3ccccc3c(=O)n2c2ccc(N3CCOCC3)cc12
- Activity (PC-3 [1]): Active

- IC50 (PC-3 [2]): 159 nM
- IC50 (PANC-1): 197 nM
- IC50 (SW1990): 41 to 188 nM
- IC50 (SK-BR-3): 41 to 188 nM
- IC50 (HCT-116): 41 to 188 nM
- IC50 (NCI-H1299): 41 to 188 nM
- IC50 (HepG2): 41 to 188 nM
- IC50 (HeLa): 41 to 188 nM
- IC50 (DU-145): 41 to 188 nM
SMILES: CCOC(=O)c1c(C)n2c3ccccc3c(=O)n2c2ccc3c(c12)OCO3
- Activity (PC-3 [1]): Active
- inhibition at 0.5 µM (PC-3 [3]): 62.8%
- inhibition at 0.05 µM (PC-3 [4]): 85%
- inhibition at 0.25 µM (PC-3 [5]): 98%
- inhibition (PC-3 [6]): Dose-dependent effect
- Activity (PC-3 [7]): Dose-dependent effect
- Activity (PC-3 [8]): 55.12%
- Activity (PC-3 [9]): 23.43%
- Activity (PC-3 [10]): 21.45%
- Activity (PC-3 [11]): 46.89%
- Activity (PC-3 [12]): 22.46%
- Activity (PC-3 [13]): 30.65%
- Activity (PC-3 [14]): 14.06%
- Activity (PC-3 [15]): 24.16%
- Activity (PC-3 [16]): 61.78%
- Activity (PC-3 [17]): Dose-dependent effect
- Activity (PC-3 [18]): Dose-dependent effect
- viability at 0.05 µM (PC-3 [19]): 34.7%
- Activity (PC-3 [20]): 25.82%
- Activity (PC-3 [21]): 37.02%
- Activity (PC-3 [22]): 2.48%
- viability at 0.1 µM (PC-3 [23]): 13%
- Activity (PC-3 [24]): 18.52%
- Activity (PC-3 [25]): 56.27%
- Activity (PC-3 [26]): 12.2%
- viability at 0.25 µM (PC-3 [27]): 4.73%
- Activity (PC-3 [28]): 27.88%
- Activity (PC-3 [29]): 62.42%
- Activity (PC-3 [30]): 4.97%
- Activity (PC-3 [31]): Dose-dependent effect
- Activity (PC-3 [32]): Dose-dependent effect
- Activity (PC-3 [33]): Dose-dependent effect
- Activity (PC-3 [34]): Dose-dependent effect

- IC50 (PC-3 [2]): > 50000 nM
- IC50 (PANC-1): > 50000 nM
SMILES: CCOC(=O)c1c(-c2ccccc2)n2c3ccccc3c(=O)n2c2ccc(Cl)cc12
- Activity (PC-3 [1]): Active

- IC50 (PC-3 [2]): 475 nM
- IC50 (PANC-1): 506 nM
SMILES: CCOC(=O)c1c(C)n2c3ccc(OC)cc3c(=O)n2c2ccccc12
- Activity (PC-3 [1]): Active

- IC50 (PC-3 [2]): 216 nM
- IC50 (PANC-1): 116 nM
SMILES: CCOC(=O)c1c(C)n2c3ccccc3c(=O)n2c2c(OC)cccc12
- Activity (PC-3 [1]): Active

- IC50 (PC-3 [2]): 1010 nM
- IC50 (PANC-1): 551 nM
SMILES: COC(=O)c1c(C)n2c3ccccc3c(=O)n2c2ccccc12
- Activity (PC-3 [1]): Active

- IC50 (PC-3 [2]): 5820 nM
- IC50 (PANC-1): > 50000 nM
SMILES: CCOC(=O)c1c(-c2ccccc2)n2c3ccccc3c(=O)n2c2ccc3c(c12)OCO3
- Activity (PC-3 [1]): Active
- inhibition at 0.5 µM (PC-3 [3]): 39.5%
